Assays:
[1] = Stability in D2O / water in the dark by NMR; assay type: physicochemical
Protocol: (§1) For decomposition experiments, buffers were made to the appropriate pH in a 9:1 mix of H2O:D2O. These solutions were added to the compound being assayed such that the buffer capacity was at least 10 fold the concentration of the compound. Some experiments used 5 mg compound in 0.5 mL of buffer. These were immediately inserted into an NMR instrument and scans were taken at even time intervals to calculate the half-life of the compound based on integration.
To render the triazabutadiene water-soluble, methyl imidazole was alkylated with propane sultone to provide the Zwitterionic NHC precursor Compound 5a (see FIG. 6E). […] Compound 6a was highly colored, so its pH dependence was studied using UV/Vis. The reactions were not only pH-, but also scan-frequency dependent. […] Even in the dark it was unstable, but not in the diazonium-forming way. Both Compound 6b and a more hindered mesityl (Mes) substituted Compound 6c (see FIG. 6E) were synthesized to stabilize what was initially considered to be a rearrangement pathway that could be blocked by steric repulsion. […] It is not yet clear that the hypothesis of a simple rearrangement was correct. […]
As mentioned above, Compound 6c was reasonably stable in pure D20. […] The decomposition to diazonium salts and Compound 7 was measured as a function of pH in phosphate/citrate buffers from pH 4-7 and in a phosphate buffer from pH 6-8. […]

[2] = pH-dependent decomposition to diazonium salts in buffers by NMR; assay type: physicochemical; details: phosphate/citrate buffers pH 4-7, phosphate buffer pH 6-8
Protocol: as §1
As mentioned above, Compound 6c was reasonably stable in pure D20. Upon adjusting the pH to 5 with HCl, a rapid initial consumption of Compound 6c to Compound 7 (see FIG. 6E) and a benzenediazonium salt was noted. After this initial burst of reactivity, a slowing and apparent arresting of the reaction was noted. At this pH the hydronium was the limiting reagent. All future reactions were run in buffers with a buffer capacity sufficient to maintain a large excess of hydronium ions. The experiments were performed in 90:10 H2O:D2O buffered solutions to minimize considerations of pH vs. pD. The decomposition to diazonium salts and Compound 7 was measured as a function of pH in phosphate/citrate buffers from pH 4-7 and in a phosphate buffer from pH 6-8. All runs provided linear correlations of concentration and time, indicating a pseudo-zero order reaction (first order with respect to hydronium ion with a large excess of hydronium ions). […]

Cc1cc(C)c(-n2ccn(CCCS(=O)(=O)[O-])c2=NN=Nc2ccccc2)c(C)c1.[K+] [Compound 6c, Potassium 3-(3-mesityl-2-(phenyltriaz-2-en-1-ylidene)-2,3-dihydro-1H-imidazol-1-yl) propane-1-sulfonate]
compound consumed after 24 hours ([1]; D2O, in the dark, room temperature, NMR): less than 10% | compound consumed after 6 hours ([1]; non-buffered 90:10 H2O:D2O solution): > 7% | centre of sigmoidal correlation between decomposition rate and buffer pH [2]: 6 pH
